Laboratory results reported in ChEMBL document CHEMBL5321219, “Selective degradation of cellular BRD3 and BRD4-L promoted by PROTAC molecules in six cancer cell lines” (Eur J Med Chem, 2023).
The source made the active and inactive calls. No cut-off for these calls is given here.

Key:
[1] = molecular target: T1, Bromodomain-containing protein 3 (Homo sapiens, UniProt Q15059); assay: Binding affinity to recombinant human BRD3 BD1 (24 to 144 residues) assessed as inhibition constant by fluorescence polarization binding assay
T1 sequence (Q15059 whole entry, the tested form may be a part): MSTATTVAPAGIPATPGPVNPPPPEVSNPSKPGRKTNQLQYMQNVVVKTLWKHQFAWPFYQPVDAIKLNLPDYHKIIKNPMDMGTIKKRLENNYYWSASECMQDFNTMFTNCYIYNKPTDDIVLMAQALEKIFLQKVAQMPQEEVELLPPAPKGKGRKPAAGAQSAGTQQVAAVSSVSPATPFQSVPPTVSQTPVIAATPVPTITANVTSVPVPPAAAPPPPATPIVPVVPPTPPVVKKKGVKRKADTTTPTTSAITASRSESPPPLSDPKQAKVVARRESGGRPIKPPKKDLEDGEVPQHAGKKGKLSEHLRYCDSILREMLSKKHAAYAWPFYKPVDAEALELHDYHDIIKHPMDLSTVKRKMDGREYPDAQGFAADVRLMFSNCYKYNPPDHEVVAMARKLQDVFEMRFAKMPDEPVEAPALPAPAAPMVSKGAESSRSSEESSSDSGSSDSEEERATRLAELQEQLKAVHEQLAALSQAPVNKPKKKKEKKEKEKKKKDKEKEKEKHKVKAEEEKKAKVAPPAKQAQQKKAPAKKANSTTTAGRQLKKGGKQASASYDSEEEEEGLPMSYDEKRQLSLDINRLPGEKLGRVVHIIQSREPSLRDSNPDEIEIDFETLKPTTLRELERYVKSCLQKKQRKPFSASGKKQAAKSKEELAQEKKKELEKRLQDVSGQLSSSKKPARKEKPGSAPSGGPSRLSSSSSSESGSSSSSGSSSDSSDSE

[2] = molecular target: T1, Bromodomain-containing protein 3; assay: Binding affinity to recombinant human BRD3 BD2 (306 to 417 residues) assessed as inhibition constant by fluorescence polarization binding assay
MV4-11 = assay: Antiproliferative activity against human MV4-11 cells assessed as cell growth inhibition measured after 3 days by CellTitre-Glo assay; format: functional, cell-based; conditions: MV4-11, 72 h
MM1.S = assay: Antiproliferative activity against human MM1.S cells assessed as cell growth inhibition measured after 4 days by CellTitre-Glo assay; format: functional, cell-based; conditions: 96 h
[3] = molecular target: T2, Protein cereblon/Bromodomain-containing protein 4 (Homo sapiens) (UniProt O60885+Q96SW2); assay: PROTAC activity at CRBN/BRD4-L in human MM1.S cells assessed as induction of protein degradation at 2 to 10 nM measured after 24 hrs by Western blot analysis; format: cell-based; conditions: dose 2-10 nM
T2 sequence (Q96SW2 whole entry, looked up, other chains not shown): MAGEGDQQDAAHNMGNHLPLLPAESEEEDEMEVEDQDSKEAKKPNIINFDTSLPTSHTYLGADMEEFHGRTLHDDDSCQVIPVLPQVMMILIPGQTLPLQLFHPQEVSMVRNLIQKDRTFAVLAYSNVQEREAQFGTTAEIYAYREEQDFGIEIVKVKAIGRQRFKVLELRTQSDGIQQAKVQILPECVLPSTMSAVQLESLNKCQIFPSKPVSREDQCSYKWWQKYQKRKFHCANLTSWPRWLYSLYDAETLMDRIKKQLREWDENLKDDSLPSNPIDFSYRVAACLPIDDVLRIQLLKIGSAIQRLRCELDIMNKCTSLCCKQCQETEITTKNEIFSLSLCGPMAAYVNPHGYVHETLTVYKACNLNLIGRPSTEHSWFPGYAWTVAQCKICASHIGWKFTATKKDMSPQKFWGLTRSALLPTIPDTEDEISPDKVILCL

[4] = molecular target: T2, Protein cereblon/Bromodomain-containing protein 4 (Homo sapiens); assay: PROTAC activity at CRBN/BRD4-S in human MM1.S cells assessed as induction of protein degradation at 2 to 10 nM measured after 24 hrs by Western blot analysis; format: cell-based; conditions: dose 2-10 nM
[5] = molecular target: T3, Protein cereblon/Bromodomain-containing protein 3 (Homo sapiens) (UniProt Q15059+Q96SW2); assay: PROTAC activity at CRBN/BRD3 in human MM1.S cells assessed as induction of protein degradation at 2 to 10 nM measured after 24 hrs by Western blot analysis; format: cell-based; conditions: dose 2-10 nM
T3 sequence (Q15059 2-726 limits assumed): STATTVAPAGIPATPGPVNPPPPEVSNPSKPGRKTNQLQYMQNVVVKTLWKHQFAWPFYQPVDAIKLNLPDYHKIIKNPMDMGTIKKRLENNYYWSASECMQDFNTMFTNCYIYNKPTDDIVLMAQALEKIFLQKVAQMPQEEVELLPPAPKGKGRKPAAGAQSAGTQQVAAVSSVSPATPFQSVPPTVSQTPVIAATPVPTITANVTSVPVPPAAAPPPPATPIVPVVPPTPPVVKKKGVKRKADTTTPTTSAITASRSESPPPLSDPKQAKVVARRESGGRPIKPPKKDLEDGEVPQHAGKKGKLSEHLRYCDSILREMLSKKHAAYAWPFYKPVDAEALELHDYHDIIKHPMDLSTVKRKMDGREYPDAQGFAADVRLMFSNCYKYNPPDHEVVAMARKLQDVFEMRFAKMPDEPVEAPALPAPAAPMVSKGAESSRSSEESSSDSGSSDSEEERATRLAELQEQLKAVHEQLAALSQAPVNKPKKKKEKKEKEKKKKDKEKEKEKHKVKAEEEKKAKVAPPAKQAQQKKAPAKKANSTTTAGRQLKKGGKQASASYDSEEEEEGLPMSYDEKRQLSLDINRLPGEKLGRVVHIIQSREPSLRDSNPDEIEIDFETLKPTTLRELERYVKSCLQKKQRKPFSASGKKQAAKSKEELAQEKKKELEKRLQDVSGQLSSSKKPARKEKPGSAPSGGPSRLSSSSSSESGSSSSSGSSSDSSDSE
T3 sequence (Q96SW2 whole entry partner): as the sequence (Q96SW2 whole entry, looked up, other chains not shown) above

[6] = molecular target: Protein cereblon/Bromodomain-containing protein 2 (Homo sapiens) (UniProt P25440+Q96SW2); assay: PROTAC activity at CRBN/BRD2 in human MM1.S cells assessed as induction of protein degradation at 2 to 10 nM measured after 24 hrs by Western blot analysis; format: cell-based; conditions: dose 2-10 nM
Sequence of Protein cereblon/Bromodomain-containing protein 2 (Homo sapiens) (P25440 whole entry, looked up): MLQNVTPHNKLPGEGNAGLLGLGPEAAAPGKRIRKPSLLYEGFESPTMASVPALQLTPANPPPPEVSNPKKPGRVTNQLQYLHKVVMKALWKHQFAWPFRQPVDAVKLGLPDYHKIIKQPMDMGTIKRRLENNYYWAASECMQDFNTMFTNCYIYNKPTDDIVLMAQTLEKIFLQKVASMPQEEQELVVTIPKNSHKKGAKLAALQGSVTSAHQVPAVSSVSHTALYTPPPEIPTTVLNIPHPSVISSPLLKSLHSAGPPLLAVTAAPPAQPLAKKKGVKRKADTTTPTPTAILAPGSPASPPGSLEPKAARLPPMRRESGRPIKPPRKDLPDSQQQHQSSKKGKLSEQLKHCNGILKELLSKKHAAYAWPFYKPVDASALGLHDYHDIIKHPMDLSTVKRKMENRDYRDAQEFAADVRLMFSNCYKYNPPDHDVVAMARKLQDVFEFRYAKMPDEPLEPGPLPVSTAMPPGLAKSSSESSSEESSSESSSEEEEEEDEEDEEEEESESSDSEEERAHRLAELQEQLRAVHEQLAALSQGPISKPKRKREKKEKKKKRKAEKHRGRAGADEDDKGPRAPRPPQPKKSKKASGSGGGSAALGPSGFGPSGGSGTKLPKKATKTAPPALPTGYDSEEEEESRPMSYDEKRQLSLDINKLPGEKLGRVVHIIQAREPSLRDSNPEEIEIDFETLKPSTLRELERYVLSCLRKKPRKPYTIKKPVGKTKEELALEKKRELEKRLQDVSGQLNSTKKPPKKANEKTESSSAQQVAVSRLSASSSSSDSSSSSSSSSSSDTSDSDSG
Sequence of Protein cereblon/Bromodomain-containing protein 2 (Homo sapiens) (Q96SW2 whole entry, looked up): as the sequence (Q96SW2 whole entry, looked up, other chains not shown) above

A549 = assay: Antiproliferative activity against human A549 cells assessed as cell growth inhibition measured after 4 days by CCK-8 assay; format: functional, cell-based; conditions: A549, 96 h
HeLa = assay: Antiproliferative activity against human HeLa cells assessed as cell growth inhibition measured after 4 days by CCK-8 assay; format: functional, cell-based; conditions: 96 h
HepG2 = assay: Antiproliferative activity against human HepG2 cells assessed as cell growth inhibition measured after 4 days by CCK-8 assay; format: functional, cell-based; conditions: HepG2, 96 h
HGC-27 = assay: Antiproliferative activity against human HGC-27 cells assessed as cell growth inhibition measured after 4 days by CCK-8 assay; format: functional, cell-based; conditions: HGC-27, 96 h
MCF7 = assay: Antiproliferative activity against human MCF7 cells assessed as cell growth inhibition measured after 4 days by CCK-8 assay; format: functional, cell-based; conditions: MCF7, 96 h
[7] = molecular target: T2, Protein cereblon/Bromodomain-containing protein 4 (Homo sapiens); assay: PROTAC activity at CRBN/BRD4-L in human MM1.S cells assessed as induction of protein degradation at 2 nM measured after 24 hrs by Western blot analysis; format: cell-based
[8] = molecular target: T3, Protein cereblon/Bromodomain-containing protein 3 (Homo sapiens); assay: PROTAC activity at CRBN/BRD3 in human MM1.S cells assessed as induction of protein degradation at 2 nM measured after 24 hrs by Western blot analysis; format: cell-based

Row | Ki [1] | Ki [2] | IC50 (MV4-11) | IC50 (MM1.S) | Activity [3] | Activity [4] | Activity [5] | Activity [6] | IC50 (A549) | IC50 (HeLa) | IC50 (HepG2) | IC50 (MCF7) | Activity [7] | Activity [8] | SMILES | IC50 (HGC-27)
1 | 267 nM | 47.2 nM | 1220 nM | 3790 nM | – | – | – | – | – | – | – | – | – | – | CNCc1ccc(-c2ccc3c(c2)C(Nc2ccc(Cl)cc2)CCc2nnc(C)n2-3)cc1 (stereo not given) | –
2 | 18.5 nM | 2.46 nM | 1010 nM | 2830 nM | inactive | inactive | inactive | inactive | – | – | – | – | – | – | Cc1nnc2n1-c1ccc(-c3ccc(CNCCCc4cccc5c4CN(C4CCC(=O)NC4=O)C5=O)cc3)cc1C(Nc1ccc(Cl)cc1)CC2 (stereo not given) | –
3 | 24.6 nM | 4.81 nM | 690 nM | 2620 nM | – | – | – | – | – | – | – | – | – | – | Cc1nnc2n1-c1ccc(-c3ccc(CNCC#Cc4cccc5c4CN(C4CCC(=O)NC4=O)C5=O)cc3)cc1C(Nc1ccc(Cl)cc1)CC2 (stereo not given) | –
4 | 13.1 nM | 2.24 nM | 593 nM | 2640 nM | – | – | – | – | 8.48 µM | 3.23 µM | 7.56 µM | 4.84 µM | – | – | Cc1nnc2n1-c1ccc(-c3ccc(CNCCCCc4cccc5c4CN(C4CCC(=O)N(C)C4=O)C5=O)cc3)cc1C(Nc1ccc(Cl)cc1)CC2 (stereo not given) | 6 µM
5 | 15.5 nM | 5.42 nM | 233 nM | 818 nM | – | – | – | – | – | – | – | – | Active | Active | Cc1nnc2n1-c1ccc(-c3ccc(CNCCCCCc4cccc5c4CN(C4CCC(=O)NC4=O)C5=O)cc3)cc1C(Nc1ccc(Cl)cc1)CC2 (stereo not given) | –
6 | 22.2 nM | 5.72 nM | 1560 nM | 3370 nM | – | – | – | – | – | – | – | – | – | – | Cc1nnc2n1-c1ccc(-c3ccc(CNCCC#Cc4cccc5c4CN(C4CCC(=O)NC4=O)C5=O)cc3)cc1C(Nc1ccc(Cl)cc1)CC2 (stereo not given) | –
7 | 48 nM | 5.04 nM | 649 nM | 1310 nM | – | – | – | – | – | – | – | – | – | – | Cc1nnc2n1-c1ccc(-c3ccc(CNCCCC#Cc4cccc5c4CN(C4CCC(=O)NC4=O)C5=O)cc3)cc1C(Nc1ccc(Cl)cc1)CC2 (stereo not given) | –

The remaining lines, values behind:

Row | SMILES | Ki [1] | Ki [2] | IC50 (MV4-11) | IC50 (MM1.S) | Activity [3] | Activity [4] | Activity [5] | Activity [6] | IC50 (A549) | IC50 (HeLa) | IC50 (HepG2) | IC50 (MCF7) | Activity [7] | Activity [8] | IC50 (HGC-27)
8 | Cc1nnc2n1-c1ccc(-c3ccc(CNCCCCC#Cc4cccc5c4CN(C4CCC(=O)NC4=O)C5=O)cc3)cc1C(Nc1ccc(Cl)cc1)CC2 (stereo not given) | 12.1 nM | 4.73 nM | 71.4 nM | 158 nM | – | – | – | – | – | – | – | – | – | – | –
9 | Cc1nnc2n1-c1ccc(-c3cnn(CC(=O)NCCCCCC#Cc4cccc5c4CN(C4CCC(=O)NC4=O)C5=O)c3)cc1C(Nc1ccc(Cl)cc1)CC2 (stereo not given) | 32.9 nM | 6.29 nM | 178 nM | 1590 nM | inactive | inactive | inactive | inactive | – | – | – | – | – | – | –
10 | Cc1nnc2n1-c1ccc(-c3ccc(CNCCCCCCc4cccc5c4CN(C4CCC(=O)NC4=O)C5=O)cc3)cc1C(Nc1ccc(Cl)cc1)CC2 (stereo not given) | 6.73 nM | 2.16 nM | 0.4 nM | 31.4 nM | – | – | – | – | – | – | – | – | Active | Active | –
11 | Cc1nnc2n1-c1ccc(-c3ccc(CNCCCCCCCc4cccc5c4CN(C4CCC(=O)NC4=O)C5=O)cc3)cc1C(Nc1ccc(Cl)cc1)CC2 (stereo not given) | 7.94 nM | 2.26 nM | 0.76 nM | 27.3 nM | – | – | – | – | – | – | – | – | Active | Active | –
12 | Cc1nnc2n1-c1ccc(-c3cnn(CC(=O)NCCCC#Cc4cccc5c4CN(C4CCC(=O)NC4=O)C5=O)c3)cc1C(Nc1ccc(Cl)cc1)CC2 (stereo not given) | 37.8 nM | 4.96 nM | 2920 nM | 8190 nM | inactive | inactive | inactive | inactive | – | – | – | – | – | – | –
13 | Cc1nnc2n1-c1ccc(-c3ccc(CNCCCCCC#Cc4cccc5c4CN(C4CCC(=O)NC4=O)C5=O)cc3)cc1C(Nc1ccc(Cl)cc1)CC2 (stereo not given) | 15.1 nM | 5.89 nM | 19.9 nM | 156 nM | – | – | – | – | – | – | – | – | Active | Active | –
14 | Cc1nnc2n1-c1ccc(-c3cnn(CC(=O)NCCCCC#Cc4cccc5c4CN(C4CCC(=O)NC4=O)C5=O)c3)cc1C(Nc1ccc(Cl)cc1)CC2 (stereo not given) | 29.3 nM | 6.62 nM | 536 nM | 5330 nM | inactive | inactive | inactive | inactive | – | – | – | – | – | – | –
